# Laboratory results as given in patent US8541406B2, “Thiadiazole derivatives for the treatment of neurodegenerative diseases” (NV reMYND, priority 2006, dated 2013).
# Entries after “also recorded” stand apart in the source; their conditions may differ.
# Tested on: M17-SYNwt cells
# Experiment: α-synuclein cytotoxicity assay (LDH leakage from paraquat-treated cells)
# Format: cell-based, human
# Details: Homo sapiens; Table 3, tested according to the procedure of example 12
# Procedure: 1,2,4-thiadazole compounds made according to the methods described herein were screened for activity using the α-synuclein cytotoxicity assay as described above. Dose responses were carried out on all compounds found to be active (10 point curves in duplicate).
row,SMILES,EC50 [nM]
1,"O=S(=O)(c1cccs1)N1CCN(c2nc(Cc3ccc(F)cc3)ns2)CC1 [Example 50, 1-[thiophen-2-ylsulfonyl]-4-[3-(4-fluoro-benzyl)-1,2,4-thiadiazol-5-yl]piperazine]",468

# Same assay, conditions: Homo sapiens; inhibition of synuclein cytotoxicity, paraquat-treated M17-SYNwt cells, 10 point curves in duplicate
row,SMILES,EC50 [µg/mL]
1,"Cc1ccccc1NC(=O)N1CCN(c2nc(Cc3ccc(F)cc3)ns2)CC1C (stereo not drawn) [Compound 10, N-(2-methylphenyl)-4-[3-(4-fluorobenzyl)-1,2,4-thiadiazol-5-yl]-2-methylpiperazine-1-carboxamide]",0.6
2,"Cc1cccc(C)c1NC(=O)N1CCN(c2nc(Cc3ccc(F)cc3)ns2)CC1C (stereo not drawn) [Compound 19, N-(2,6-dimethylphenyl)-4-[3-(4-fluorobenzyl)-1,2,4-thiadiazol-5-yl]-2-methylpiperazine-1-carboxamide]",0.2
3,"Cc1ccc(Cc2nsc(N3CCN(S(=O)(=O)c4cc(Cl)ccc4Cl)C(C)C3)n2)cc1 (stereo not drawn) [Compound 36, 1-[2,5-dichlorophenylsulfonyl]-4-[3-(4-methylbenzyl)-1,2,4-thiadiazol-5-yl]-2-methylpiperazine]",0.1
4,"CC1CN(c2nc(Cc3ccc(F)cc3)ns2)CCN1S(=O)(=O)c1cccc(C(F)(F)F)c1 (stereo not drawn) [Compound 46, 1-[3-trifluorophenylsulfonyl]-4-[3-(4-fluorobenzyl)-1,2,4-thiadiazol-5-yl]-2-methylpiperazine]",1.34
5,"O=S(=O)(c1ccc2ccccc2c1)N1CCN(c2nc(Cc3ccc(Cl)cc3)ns2)CC1 [Compound 52, 1-[2-naphthylsulfonyl]-4-[3-(4-chlorobenzyl)-1,2,4-thiadiazol-5-yl]piperazine]",0.1
6,"COc1ccc(S(=O)(=O)N2CCN(c3nc(Cc4cccc(OC)c4)ns3)CC2)cc1 [Compound 53, 1-[4-methoxyphenylsulfonyl]-4-[3-(3-methoxybenzyl)-1,2,4-thiadiazol-5-yl]piperazine]",0.00066
7,"CC1CN(c2nc(Cc3ccc(F)cc3)ns2)CCN1C(=O)CCc1ccccc1 (stereo not drawn) [Compound 89, 1-(3-phenylpropanoyl)-4-[3-(4-fluorobenzyl)-1,2,4-thiadiazol-5-yl]-2-methylpiperazine]",0.6
8,"CCCCCCc1ccc(C(=O)NCCN2CCN(c3nc(Cc4ccc(F)cc4)ns3)CC2)cc1 [Compound 96, 4-hexyl-N-{2-[4-[3-(4-fluorobenzyl)-1,2,4-thiadiazol-5-yl]piperazin-1-yl]ethyl}benzamide]",0.8
9,"CCCCCc1ccc(C(=O)N2CCN(c3nc(Cc4ccc(C)cc4)ns3)CC2C)cc1 (stereo not drawn) [Compound 134, 1-(4-pentylbenzoyl)-4-[3-(4-methylbenzyl)-1,2,4-thiadiazol-5-yl]-2-methylpiperazine]",0.3
10,"Cc1ccc(C(=O)N2CCN(c3nc(Cc4ccc(F)cc4)ns3)CC2C)cc1 (stereo not drawn) [Compound 139, 1-(4-methylbenzoyl)-4-[3-(4-fluorobenzyl)-1,2,4-thiadiazol-5-yl]-2-methylpiperazine]",0.4
11,"CC1CN(c2nc(Cc3ccc(F)cc3)ns2)CCN1C(=O)c1cccc(Br)c1 (stereo not drawn) [Compound 142, 1-(3-bromobenzoyl)-4-[3-(4-fluorobenzyl)-1,2,4-thiadiazol-5-yl]-2-methylpiperazine]",0.5
12,COc1ccc(S(=O)(=O)N2CCN(c3nc(Cc4ccc(F)c(C)c4)ns3)CC2)cc1 [Compound 204],0.001
13,"O=S(=O)(c1ccc(O)cc1)N1CCN(c2nc(Cc3ccc(F)cc3)ns2)CC1 [Compound 217, 1-(4-hydroxybenzenesulfonyl)-4-[3-(4-fluoro-benzyl)-1,2,4-thiadiazol-5-yl]piperazine]",0.033

# Same assay, conditions: Table 3, tested according to the procedure of example 12
row,SMILES,% inh. [%]
1,"COc1ccc(S(=O)(=O)N2CCN(c3nc(Cc4cccc(OC)c4)ns3)CC2C)cc1 (stereo not drawn) [Compound 208, 1-[4-methoxyphenylsulfonyl]-4-[3-(3-methoxybenzyl)-1,2,4-thia-diazol-5-yl]-2-methyl-piperazine]",92
2,"O=S(=O)(c1cccs1)N1CCN(c2nc(Cc3ccc(F)cc3)ns2)CC1 [Example 50, 1-[thiophen-2-ylsulfonyl]-4-[3-(4-fluoro-benzyl)-1,2,4-thiadiazol-5-yl]piperazine]",89

# Same assay, conditions: paraquat-treated M17-SYNwt cells, dose response
row,SMILES,"reduction of LDH activity in the medium (inhibition of α-synuclein mediated toxicity), FIG. 2"
1,"Cc1cccc(C)c1NC(=O)N1CCN(c2nc(Cc3ccc(F)cc3)ns2)CC1C (stereo not drawn) [Compound 19, N-(2,6-dimethylphenyl)-4-[3-(4-fluorobenzyl)-1,2,4-thiadiazol-5-yl]-2-methylpiperazine-1-carboxamide]","inhibition of α-synuclein mediated toxicity; also recorded: able, in a dose-dependent manner, to reduce LDH activity in the medium"

# Same assay, conditions: percent inhibition of synuclein cytotoxicity, LDH release, paraquat-treated M17-SYNwt cells, at most effective concentration of test cmpd
row,SMILES,% I [%]
1,"CCOc1ccc(NC(=O)N2CCN(c3nc(Cc4ccc(F)cc4)ns3)CC2C)cc1 (stereo not drawn) [Compound 14, N-(4-ethoxyphenyl)-4-[3-(4-fluorobenzyl)-1,2,4-thiadiazol-5-yl]-2-methylpiperazine-1-carboxamide]",70
2,"CC1CN(c2nc(Cc3ccc(F)cc3)ns2)CCN1C(=O)Nc1ccc(F)c(F)c1 (stereo not drawn) [Compound 26, N-(3,4-difluorophenyl)-4-[3-(4-fluorobenzyl)-1,2,4-thiadiazol-5-yl]-2-methylpiperazine-1-carboxamide]",70
3,"CC1CN(c2nc(Cc3ccc(F)cc3)ns2)CCN1S(=O)(=O)c1cccc(C(F)(F)F)c1 (stereo not drawn) [Compound 46, 1-[3-trifluorophenylsulfonyl]-4-[3-(4-fluorobenzyl)-1,2,4-thiadiazol-5-yl]-2-methylpiperazine]",64
4,"CC1CN(c2nc(Cc3ccc(F)cc3)ns2)CCN1S(=O)(=O)c1ccc(C(C)(C)C)cc1 (stereo not drawn) [Compound 54, 1-[4-tert-butylphenylsulfonyl]-4-[3-(4-fluorobenzyl)-1,2,4-thiadiazol-5-yl]-2-methylpiperazine]",60
5,"CC(C)(C)c1ccc(S(=O)(=O)N2CCN(c3nc(Cc4ccc(F)cc4)ns3)CC2)cc1 [Compound 61, 1-[4-ter-butylphenylsulfonyl]-4-[3-(4-fluorobenzyl)-1,2,4-thiadiazol-5-yl]piperazine]",47
6,"O=S(=O)(Cc1ccccc1)N1CCN(c2nc(Cc3ccc(Cl)cc3)ns2)CC1 [Compound 76, 1-(benzylsulfonyl)-4-[3-(4-chlorobenzyl)-1,2,4-thiadiazol-5-yl]piperazine]",40
7,"CCCCS(=O)(=O)N1CCN(c2nc(Cc3ccc(Cl)cc3)ns2)CC1 [Compound 81, 1-(butylsulfonyl)-4-[3-(4-chlorobenzyl)-1,2,4-thiadiazol-5-yl]piperazine]",80
8,"CCCCCCCCS(=O)(=O)N1CCN(c2nc(Cc3ccc(C)cc3)ns2)CC1 [Compound 82, 1-(octylsulfonyl)-4-[3-(4-methylbenzyl)-1,2,4-thiadiazol-5-yl]piperazine]",50
9,"Cc1ccc(Cc2nsc(N3CCN(C/C=C/c4ccccc4)CC3)n2)cc1 [Compound 91, 1-[3-phenylprop-2-enyl]-4-[3-(4-methylbenzyl)-1,2,4-thiadiazol-5-yl]piperazine]",90
10,"CCCCCc1ccc(C(=O)NCCN2CCN(c3nc(Cc4ccc(F)cc4)ns3)CC2)cc1 [Compound 94, 4-pentyl-N-{2-[4-[3-(4-fluorobenzyl)-1,2,4-thiadiazol-5-yl]piperazin-1-yl]ethyl}benzamide]",90
11,"O=C(NCCN1CCN(c2nc(Cc3ccc(F)cc3)ns2)CC1)c1ccc(F)cc1 [Compound 102, 4-fluoro-N-{2-[4-[3-(4-fluorobenzyl)-1,2,4-thiadiazol-5-yl]piperazin-1-yl]ethyl}benzamide]",80
12,"O=C(Cc1ccc(F)cc1)NCCN1CCN(c2nc(Cc3ccc(F)cc3)ns2)CC1 [Compound 107, 2-(4-fluorophenyl)-N-{2-[4-[3-(4-fluorobenzyl)-1,2,4-thiadiazol-5-yl]piperazin-1-yl]ethyl}acetamide]",80
13,"CC1CN(c2nc(Cc3ccc(F)cc3)ns2)CCN1C(=O)c1cccc(C(F)(F)F)c1 (stereo not drawn) [Compound 145, 1-(3-trifluoromethylbenzoyl)-4-[3-(4-fluorobenzyl)-1,2,4-thiadiazol-5-yl]-2-methylpiperazine]",60
14,"O=C(c1cccc(F)c1)N1CCN(c2nc(Cc3ccc(Cl)cc3)ns2)CC1 [Compound 157, 1-(3-fluorobenzoyl)-4-[3-(4-chlorobenzyl)-1,2,4-thiadiazol-5-yl]piperazine]",70
15,"Cc1ccc(Cc2nsc(N3CCN(C(=O)c4ccc(Br)cc4)CC3)n2)cc1 [Compound 164, 1-(4-bromobenzoyl)-4-[3-(4-methylbenzyl)-1,2,4-thiadiazol-5-yl]piperazine]",60
16,"O=C(c1ccccc1)N1CCN(c2nc(Cc3ccc(F)cc3)ns2)CC1 [Compound 181, 1-benzoyl-4-[3-(4-fluorobenzyl)-1,2,4-thiadiazol-5-yl]piperazine]",60
17,"CCC(=O)Oc1ccc(S(=O)(=O)N2CCN(c3nc(Cc4ccc(F)cc4)ns3)CC2)cc1 [Compound 200, 1-(4-propionyloxy)benzene-sulfonyl-4-[3-(4-fluoro-benzyl)-1,2,4-thiadiazol-5-yl]piperazine]",80
18,COc1ccc(S(=O)(=O)N2CCN(c3nc(Cc4ccc(F)c(C)c4)ns3)CC2)cc1 [Compound 204],90

# Tested on: dopaminergic substantia nigra neurons
# Experiment: In vivo inhibition of paraquat-triggered loss of substantia nigra neurons (TH immunohistochemistry)
# Details: mice, paraquat intraperitoneal, compound not higher than 20 mg/kg body weight/day, 8 weeks, versus vehicle
# Procedure: In order to model neuronal loss in the substantia nigra region of the brain, mice were treated with paraquat (intraperitoneal) at a dose not higher than 8 mg/kg/day for a continuous period of 15-100 days. These mice were also chronically co-treated during that period with: • compound 60 (1-[4-methoxyphenylsulfonyl]-4-[3-(4-methylbenzyl)-1,2,4-thiadiazol-5-yl]-2-methylpiperazine), or • compound 32 (1-[4-methoxyphenylsulfonyl]-4-[3-(4-fluorobenzyl)-1,2,4-thiadiazol-5-yl]piperazine), or • compound 53 (1-[4-methoxyphenylsulfonyl]-4-[3-(3-methoxy-benzyl)-1,2,4-thiadiazol-5-yl]piperazine), each being administered at a dose not higher than 20 mg/kg body weight/day), or by vehicle only (no active compound). Mice treatment by means of vehicle or a compound of the invention started 2 days before administration of paraquat.
# At the end of the treatment period, mice were sacrificed and the corresponding brains were used for immunohistochemical analysis. […] Using antibodies raised against tyrosin hydroxylase (anti-tyrosin hydroxylase), tyrosine hydroxylase containing neurons in the brains were detected.
# Three groups of mice were treated with either paraquat and compound 53 (group 3; n=6), or paraquat and vehicle of compound 53 (group 2; n=4), or vehicle paraquat and vehicle of compound 53 (group 1; n=3). […] Per mouse, the median % TH-positive areas (of the substantia nigra regions) was determined. […]
row,SMILES,protection of TH-positive substantia nigra area against paraquat-triggered degeneration
1,"COc1ccc(S(=O)(=O)N2CCN(c3nc(Cc4cccc(OC)c4)ns3)CC2)cc1 [Compound 53, 1-[4-methoxyphenylsulfonyl]-4-[3-(3-methoxybenzyl)-1,2,4-thiadiazol-5-yl]piperazine]",inhibition of paraquat-triggered degeneration of substantia nigra cells; also recorded: protects dopaminergic substantia nigra neurons against paraquat-triggered degeneration
